The values below come from patent US10517910B2 (priority 2015, dated 2019).

Structures are written as SMILES. Structures can show the parent of a compound that is named as a salt.

In the assay the test system is HuH-7 cells infected with JX-594 virus. Format: cell-based.

Consider `COc1cccc2c1C(=O)c1c(O)c3c(c(O)c1C2=O)C[C@@](O)(C(=O)CO)C[C@@H]3O[C@H]1C[C@H](N)[C@H](O)[C@H](C)O1` [Adriamicyn, Doxorubicin hydrochloride], for which the “JX-594 viral replication in vitro” value is “decrease” and the viral output entry is “decreased”.
